± gives the standard deviation of the averaged measurements.
Key:
Experiment in all cases: level (log10 ratio to DMSO vehicle control); higher = higher biomarker level / cell amount than vehicle control
Conditions in all cases: in DMSO
[1] = compound: FC(F)(F)C(F)(F)CNCC(F)(F)C(F)(F)F [Bis(1H,1H-perfluoropropyl)amine]
Method: (§1)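 BioMAP Diversity Plus panel of 12 human primary cell co-culture systems (3C, 4H, LPS, SAg, BT, BF4T, BE3C, CASM3C, HDF3CGF, KF3CT, MyoF, Mphg). Compounds were added 1 h before stimulation and left for 24 h (MyoF 48 h; BT 72 h for soluble read-outs or 6 d for IgG). Biomarkers were read by ELISA, cytotoxicity by SRB, PBMC viability and proliferation by Alamar Blue. Each well value was divided by the mean of 8 DMSO control wells on the same plate and log10 transformed; duplicate blinded samples were tested at 4 concentrations.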

[2] = compound: O=C(O)C(F)(F)C(F)(F)C(F)(F)C(F)(F)C(F)(F)C(F)(F)C(F)(F)C(F)(F)C(F)(F)C(F)F [11-H-Perfluoroundecanoic acid]
Method: as §1

Heptafluorobutyl iodide = compound: FC(F)(F)C(F)(F)C(F)(F)CI [Heptafluorobutyl iodide]
Method: as §1

[3] = compound: NC(=O)C(F)(F)C(F)(F)C(F)(F)C(F)F
Method: as §1

[4] = compound: C=C(C)C(=O)OCCC(F)(F)C(F)(F)C(F)(F)C(F)(F)C(F)(F)C(F)(F)F [6:2 Fluorotelomer methacrylate]
Method: as §1

[5] = compound: COC(=O)C(F)(F)C(F)(F)OC(F)(C(F)(F)F)C(F)(F)OC(F)=C(F)F [Methyl perfluoro(3-(1-ethenyloxypropan-2-yloxy)propanoate)]
Method: as §1

[6] = compound: NS(=O)(=O)C(F)(F)C(F)(F)C(F)(F)C(F)(F)C(F)(F)C(F)(F)F [Perfluorohexanesulfonamide]
Method: as §1

Test System	level (log10) ([1]; 6700 nM)	level (log10) ([1]; 20000 nM)	level (log10) ([1]; 60000 nM)	level (log10) ([2]; 6700 nM)	level (log10) ([2]; 20000 nM)	level (log10) (Heptafluorobutyl iodide; 6700 nM)	level (log10) (Heptafluorobutyl iodide; 20000 nM)	level (log10) (Heptafluorobutyl iodide; 60000 nM)	level (log10) ([3]; 6700 nM)	level (log10) ([3]; 20000 nM)	level (log10) ([3]; 60000 nM)	level (log10) ([4]; 6700 nM)	level (log10) ([4]; 20000 nM)	level (log10) ([4]; 60000 nM)	level (log10) ([5]; 6700 nM)	level (log10) ([5]; 20000 nM)	level (log10) ([6]; 6700 nM)	level (log10) ([6]; 20000 nM)	level (log10) ([6]; 60000 nM)
MyoF:alpha-SM Actin	0.0315 ± 0.037	0.0225 ± 0.046	0.0245 ± 0.043	-0.044 ± 0.033	-0.11 ± 0.033	0.018 ± 0.0085	0.026 ± 0.054	0.0225 ± 0.032	-0.006 ± 0.0057	0.0025 ± 0.023	-0.002 ± 0.033	0.003 ± 0.011	-0.02 ± 0.038	-0.0015 ± 0.018	-0.023 ± 0.021	-0.043 ± 0.047	-0.003 ± 0.035	0.01 ± 0.033	0.004 ± 0.0057
MyoF:bFGF	-0.0065 ± 0.013	-0.0045 ± 0.005	0.013 ± 0.025	0.006 ± 0.0099	0.005	0.0115 ± 0.019	0.01 ± 0.0028	0.0115 ± 0.005	-0.0125 ± 0.005	-0.008 ± 0.017	-0.0155 ± 0.005	-0.0025 ± 0.0064	-0.0115 ± 0.018	-0.0085 ± 0.011	0.016 ± 0.0099	0.037 ± 0.021	-0.0005 ± 0.00071	-0.001 ± 0.0042	-0.004 ± 0.023
lMphg:CCL2/MCP-1	0.0015 ± 0.0035	0.001 ± 0.013	-0.02 ± 0.042	-0.0145 ± 0.025	0.0085 ± 0.028	0.0255 ± 0.00071	-0.006 ± 0.0028	0.0135 ± 0.0021	0.004	-0.0065 ± 0.012	0.0255 ± 0.018	-0.005 ± 0.0085	-0.009 ± 0.0014	0.004 ± 0.0071	-0.0045 ± 0.0064	0.0335 ± 0.044	-0.018 ± 0.054	-0.053 ± 0.017	-0.123 ± 0.054
lMphg:CCL3/MIP-1alpha	0.039 ± 0.016	0.002 ± 0.014	-0.009 ± 0.0085	-0.023 ± 0.023	-0.027 ± 0.0057	0.023 ± 0.079	0.0315 ± 0.11	0.06 ± 0.045	-0.039 ± 0.0099	-0.0295 ± 0.018	-0.006 ± 0.0028	0.0005 ± 0.066	-0.0185 ± 0.061	0.003 ± 0.04	0.032 ± 0.031	0.0655 ± 0.026	-0.0025 ± 0.00071	-0.034 ± 0.044	-0.0145 ± 0.0092
lMphg:CD62E/E-Selectin	0.0005 ± 0.0035	-0.0185 ± 0.0078	0.002 ± 0.02	-0.025 ± 0.023	-0.028 ± 0.034	-0.0065 ± 0.011	-0.0065 ± 0.005	0.0085 ± 0.019	-0.011 ± 0.038	-0.021 ± 0.076	-0.037 ± 0.078	-0.0005 ± 0.015	-0.003 ± 0.048	-0.0135 ± 0.011	0.011 ± 0.052	0.018 ± 0.027	-0.02 ± 0.031	-0.061 ± 0.0014	-0.191 ± 0.013
lMphg:CD106/VCAM-1	0.0135 ± 0.011	0.0055 ± 0.0092	0.0075 ± 0.0035	-0.0065 ± 0.0035	0.014 ± 0.023	-0.0115 ± 0.005	-0.022 ± 0.0085	-0.0175 ± 0.016	0 ± 0.013	0.006 ± 0.0014	-0.003 ± 0.017	-0.024 ± 0.013	-0.007 ± 0.021	-0.021 ± 0.011	-0.008 ± 0.025	-0.006 ± 0.025	-0.0155 ± 0.025	-0.012 ± 0.024	-0.0805 ± 0.018
lMphg:IL-1alpha	-0.025 ± 0.0071	-0.031 ± 0.0057	0.0295 ± 0.059	-0.024 ± 0.024	-0.008 ± 0.0014	0.029 ± 0.027	0.0335 ± 0.03	0.0305 ± 0.019	-0.0425 ± 0.023	-0.0465 ± 0.00071	0.0365 ± 0.047	-0.0445 ± 0.076	-0.03 ± 0.02	-0.0305 ± 0.069	0.0435 ± 0.035	0.118 ± 0.0021	0.019 ± 0.052	0.114 ± 0.016	0.148 ± 0.0028
lMphg:M-CSF	-0.007 ± 0.011	-0.0145 ± 0.022	0.0165 ± 0.021	-0.019 ± 0.0071	-0.007 ± 0.018	-0.026 ± 0.014	-0.0165 ± 0.005	-0.0245 ± 0.039	-0.0135 ± 0.0092	-0.018 ± 0.025	-0.0175 ± 0.015	0.0215 ± 0.0064	-0.016 ± 0.0071	-0.0125 ± 0.025	-0.0325 ± 0.042	-0.0335 ± 0.035	-0.051 ± 0.072	-0.113 ± 0.037	-0.119 ± 0.051
lMphg:SRB	-0.0085 ± 0.00071	-0.007 ± 0.0028	0.009 ± 0.018	-0.004 ± 0.0057	0.017 ± 0.0099	-0.0035 ± 0.0035	0.0065 ± 0.0092	0.0045 ± 0.0064	-0.008 ± 0.0057	-0.007 ± 0.0042	-0.0005 ± 0.018	-0.0065 ± 0.025	-0.0115 ± 0.015	-0.0175 ± 0.00071	0.0025 ± 0.011	0.0025 ± 0.011	-0.007 ± 0.0042	-0.015 ± 0.0028	-0.0645 ± 0.0064
lMphg:sIL-10	-0.0755 ± 0.028	0.037 ± 0.024	-0.059 ± 0.034	-0.0875 ± 0.026	-0.0855 ± 0.0064	-0.0135 ± 0.036	0.0085 ± 0.013	-0.03 ± 0.078	-0.013 ± 0.023	-0.0715 ± 0.005	-0.021 ± 0.047	-0.01 ± 0.089	-0.0545 ± 0.035	0.0135 ± 0.0035	-0.0355 ± 0.0035	-0.102 ± 0.04	0 ± 0.0071	-0.142 ± 0.017	-0.5835 ± 0.00071
